Molecular target: S. pneumoniae Topoisomerase IV ATPase (ParE) (Streptococcus pneumoniae serotype 4, UniProt Q59961)
Assay: S. pneumoniae Topoisomerase IV ATPase inhibition
Type: biochemical
Conditions: values marked * are an average of two or more data points, read-out: % Inh (13 μM) of S. pneumoniae Topoisomerase IV ATPase
In short: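 ParE ATPase (1.25 nM) run with 160 μM ATP and 5 μg/ml sheared salmon sperm DNA in Tris pH 8.0, Mg2+, glycerol, DTT, Brij-35. Phosphate released read by malachite green/molybdate absorbance at 650 nm. IC50 from 10 compound concentrations; DMSO (2%) as 0% and EDTA (20 μM) as 100% inhibition.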

S. pneumoniae Topoisomerase IV ATPase (ParE), sequence (Q59961 whole entry): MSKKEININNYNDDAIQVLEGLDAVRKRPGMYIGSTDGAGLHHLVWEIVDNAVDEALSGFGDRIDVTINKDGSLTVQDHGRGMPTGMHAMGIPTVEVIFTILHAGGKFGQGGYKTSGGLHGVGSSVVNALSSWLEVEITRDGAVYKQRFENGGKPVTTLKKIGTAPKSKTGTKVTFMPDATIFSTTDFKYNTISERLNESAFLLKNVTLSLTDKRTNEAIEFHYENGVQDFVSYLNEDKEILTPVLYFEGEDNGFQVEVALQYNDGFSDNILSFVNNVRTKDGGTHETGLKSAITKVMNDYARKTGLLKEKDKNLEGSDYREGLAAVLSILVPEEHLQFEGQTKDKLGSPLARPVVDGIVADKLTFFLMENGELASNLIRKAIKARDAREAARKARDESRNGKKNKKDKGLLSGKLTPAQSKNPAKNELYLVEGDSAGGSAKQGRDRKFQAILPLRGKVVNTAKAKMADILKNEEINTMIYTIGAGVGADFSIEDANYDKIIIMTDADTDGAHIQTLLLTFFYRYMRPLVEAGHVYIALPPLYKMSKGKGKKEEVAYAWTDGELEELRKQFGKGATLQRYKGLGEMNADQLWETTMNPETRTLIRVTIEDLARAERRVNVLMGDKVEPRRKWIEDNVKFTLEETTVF

Row | SMILES | inhibition at 13 µM [%]
1 | COCCN1CCN(c2nc(Nc3ccc(F)c(Cl)c3)ncc2-c2cncc(C(=O)O)c2)CC1 [Example 284, 5-(2-(3-chloro-4-fluorophenylamino)-4-(4-(2-methoxyethyl)piperazin-1-yl)pyrimidin-5-yl)nicotinic acid] | 69.4
2 | CN1CCN(c2nc(Nc3ccc(F)c(Cl)c3)ncc2-c2cncc(C(=O)O)c2)CC1 [Example 285, 5-(2-(3-chloro-4-fluorophenylamino)-4-(4-methylpiperazin-1-yl)pyrimidin-5-yl)nicotinic acid] | 61.9
3 | CC1CN(c2nc(Nc3ccc(F)c(Cl)c3)ncc2-c2cccc(/C=C/C(=O)O)c2)CC(C)O1 (stereo not drawn) [Example 286, (E)-3-(3-(2-(3-chloro-4-fluorophenylamino)-4-(2,6-dimethylmorpholin-)-pyrimidin-5-yl)phenyl)acrylic acid] | 89.8
4 | O=C(O)/C=C/c1cccc(-c2cnc(Nc3ccc(F)c(Cl)c3)nc2N2CCN(C(=O)C3CC3)CC2)c1 [Example 287, (E)-3-(3-(2-(3-chloro-4-fluorophenylamino)-4-(4-(cyclopropanecarbonyl)-piperazin-1-yl)pyrimidin-5-yl)phenyl)acrylic acid] | 97.2
5 | CC(=O)N1CCN(c2nc(Nc3ccc(F)c(Cl)c3)ncc2-c2cccc(/C=C/C(=O)O)c2)CC1 [Example 288, (E)-3-(3-(4-(4-acetylpiperazin-1-yl)-2-(3-chloro-4-fluorophenylamino)-pyrimidin-5-yl)phenyl)acrylic acid] | 82.9
6 | O=C(O)/C=C/c1cccc(-c2cnc(Nc3ccc(F)c(Cl)c3)nc2NCCCc2nc3ccccc3[nH]2)c1 [Example 289, (E)-3-(3-(4-(3-(1H-benzo[d]imidazol-2-yl)propylamino)-2-(3-chloro-4-fluorophenylamino)-pyrimidin-5-yl)phenyl)acrylic acid] | 88.2
7 | O=C(O)/C=C/c1cccc(-c2cnc(Nc3ccc(F)c(Cl)c3)nc2N2CCOCC2)c1 [Example 290, (E)-3-(3-(2-(3-chloro-4-fluorophenylamino)-4-morpholinopyrimidin-5-yl)phenyl)acrylic acid] | 80.5
8 | CN(C)C(=O)N1CCN(c2nc(Nc3ccc(F)c(Cl)c3)ncc2-c2cccc(/C=C/C(=O)O)c2)CC1 [Example 291, (E)-3-(3-(2-(3-chloro-4-fluorophenylamino)-4-(4-(dimethylcarbamoyl)-piperazin-1-yl)pyrimidin-5-yl)phenyl)acrylic acid] | 90.1
9 | Cc1cnc(C(=O)NCCCNc2nc(Nc3ccc(F)c(Cl)c3)ncc2-c2cccc(/C=C/C(=O)O)c2)cn1 [Example 292, (E)-3-(3-(2-(3-chloro-4-fluorophenylamino)-4-(3-(5-methylpyrazine-2-carboxamido)propylamino)-pyrimidin-5-yl)phenyl)acrylic acid] | 81
10 | COCCCNc1nc(Nc2ccc(F)c(Cl)c2)ncc1-c1cccc(/C=C/C(=O)O)c1 [Example 293, (E)-3-(3-(2-(3-chloro-4-fluorophenylamino)-4-(3-methoxypropylamino)-pyrimidin-5-yl)phenyl)acrylic acid] | 85.3
11 | O=C(O)/C=C/c1cccc(-c2cnc(Nc3ccc(F)c(Cl)c3)nc2N2CCCC2)c1 [Example 294, (E)-3-(3-(2-(3-chloro-4-fluorophenylamino)-4-(pyrrolidin-1-yl)pyrimidin-5-yl)phenyl)acrylic acid] | 73.2
12 | O=C(O)/C=C/c1cccc(-c2cnc(Nc3ccc(F)c(Cl)c3)nc2N[C@@H]2CCOC2)c1 [Example 295, (R,E)-3-(3-(2-(3-chloro-4-fluorophenylamino)-4-(tetrahydrofuran-3-ylamino)pyrimidin-5-yl)phenyl)acrylic acid] | 82.7
13 | Cn1cncc1CNc1nc(Nc2ccc(F)c(Cl)c2)ncc1-c1cccc(/C=C/C(=O)O)c1 [Example 296, (E)-3-(3-(2-(3-chloro-4-fluorophenylamino)-4-((1-methyl-1H-imidazol-5-yl)methylamino)pyrimidin-5-yl)phenyl)acrylic acid] | 77.6
14 | O=C(O)/C=C/c1cccc(-c2cnc(Nc3ccc(F)c(Cl)c3)nc2N2CCCCC2)c1 [Example 297, (E)-3-(3-(2-(3-chloro-4-fluorophenylamino)-4-(piperidin-1-yl)pyrimidin-5-yl)phenyl)acrylic acid] | 128
15 | Cn1cc(CNc2nc(Nc3ccc(F)c(Cl)c3)ncc2-c2cccc(/C=C/C(=O)O)c2)cn1 [Example 298, (E)-3-(3-(2-(3-chloro-4-fluorophenylamino)-4-((1-methyl-1H-pyrazol-4-yl)methylamino)pyrimidin-5-yl)phenyl)acrylic acid] | 80.7
16 | COCC(COC)Nc1nc(Nc2ccc(F)c(Cl)c2)ncc1-c1cccc(/C=C/C(=O)O)c1 [Example 299] | 98.7
17 | COCCN1CCN(c2nc(Nc3ccc(F)c(Cl)c3)ncc2-c2cccc(/C=C/C(=O)O)c2)CC1 [Example 300, (E)-3-(3-(2-(3-chloro-4-fluorophenylamino)-4-(4-(2-methoxyethyl)piperazin-1-yl)pyrimidin-5-yl)phenyl)acrylic acid] | 82.3
18 | CN1CCN(c2nc(Nc3ccc(F)c(Cl)c3)ncc2-c2cccc(/C=C/C(=O)O)c2)CC1 [Example 301, (E)-3-(3-(2-(3-chloro-4-fluorophenylamino)-4-(4-methylpierazin-1-yl)pyrimidin-5-yl)phenyl)acrylic acid] | 72.2
19 | CS(=O)(=O)N1CCN(c2nc(Nc3ccc(F)c(Cl)c3)ncc2-c2cccc(/C=C/C(=O)O)c2)CC1 [Example 302, (E)-3-(3-(2-(3-chloro-4-fluorophenylamino)-4-(4-(methylsulfonyl)piperazin-1-yl)pyrimidin-5-yl)phenyl)acrylic acid] | 83
20 | COCCn1cc(C(=O)O)c(=O)c2cc(-c3cnc(Nc4ccc(F)c(Cl)c4)nc3N3CCOCC3)ccc21 [Example 303, 6-(2-(3-chloro-4-fluorophenylamino)-4-morpholinopyrimidin-5-yl)-1-(2-methoxyethyl)-4-oxo-1,4-dihydroquinone-3-carboxylic acid] | 82
21 | COCCCNc1nc(Nc2ccc(F)c(Cl)c2)ncc1-c1ccc2c(c1)c(=O)c(C(=O)O)cn2CCOC [Example 304, 6-(2-(3-chloro-4-fluorophenylamino)-4-(3-methoxypropylamino)-pyrimidin-5-yl)-1-(2-methoxyethyl)-4-oxo-1,4-dihydroquinoline-3-carboxylic acid] | 55.8
22 | COCCCNc1nc(Nc2ccc(F)c(Cl)c2)ncc1-c1ccc2ncc(C(=O)O)cc2c1 [Example 305, 6-(2-(3-chloro-4-fluorophenylamino)-4-(3-methoxypropylamino)-pyrimidin-5-yl)quinoline-3-carboxylic acid] | 89.2
23 | O=C(O)c1cc2cc(-c3cnc(Nc4ccc(F)c(Cl)c4)nc3N3CCOCC3)ccc2s1 [Example 306, 5-(2-(3-chloro-4-fluorophenylamino)-4-morpholinopyrimidin-5-yl)benzo[b]thiophene-2-carboxylic acid] | 84.8
24 | COCCCNc1nc(Nc2ccc(F)c(Cl)c2)ncc1-c1ccc2sc(C(=O)O)cc2c1 [Example 307, 5-(2-(3-choloro-4-fluorophenylamino)-4-(3-methoxypropylamino)-pyrimidin-5-yl)benzo[b]thiophene-2-carboxylic acid] | 80.6

— patent publication US20100137313A1 (ASTRAZENECA AB, priority 2008, published 2010)
